Experiments:
[1] = test system: TPP1; assay: Immunofluorescence for TPP1 in human primary astrocytes; type: cell-based; settings: 25 μM gemfibrozil and 10 μM fenofibrate, 24 hrs
Protocol: (§1) Following four 15 minute washes with filtered PBS, cells were incubated for 4-5 min with 4′, 6-diamidino-2-phenylindole (DAPI, 1:10,000; Sigma).

[2] = test system: CLN2 (−/−) mice; assay: Motor activity monitoring of CLN2 (−/−) mice; type: in vivo, mouse; settings: after 2 weeks and 6 weeks of gemfibrozil treatment
Protocol: Each animal was allowed 5 mins of adaptation time followed by monitoring for 5 min. *p-value<0.05. n=15 (untreated), n=20 (treated)

[3] = test system: TPP1; assay: Immunofluorescence for TPP1 in mouse primary neurons; type: cell-based; settings: mouse neurons from cortex, hippocampus, and striatum; 25 μM gemfibrozil and 10 μM fenofibrate, 24 hrs
Protocol: as §1

[4] = test system: CLN2 (−/−) mouse; assay: Survival (Kaplan-Meier) of CLN2 (−/−) mice; type: in vivo; settings: oral 7.5 mg/kg body weight/day from 4 weeks of age
From the text: Treatment was started from 4 weeks of age for all groups. Methyl cellulose was used as vehicle. Top panel: Schematic representation of experiments performed. Bottom panel: Kaplan-Meier plot for percentage survival of treated vs. vehicle or untreated animals.

[5] = test system: TPP1; assay: TPP1 activity assay on cell extracts of treated mouse brain cells; type: cell-based; settings: WT astrocytes; 25 μM gemfibrozil and 10 μM fenofibrate, 24 hrs
Protocol: TPP-I activity was assayed in 96-well format plates using the following modification of the method described by Vines and Warburton (6). Briefly, samples and substrate (40 μL) were mixed in individual wells of polystyrene 96-well plate (Nalge Nunc International). […] A3401; Sigma; diluted freshly from a 25 mmol/L stock solution in dimethyl sulfoxide stored at -20° C.) in 0.15 mol/L NaCl-1 g/L Triton X-100-0.1 mol/L sodium acetate, adjusted to pH 4.0 at 20° C. Plates were centrifuged briefly to dispel bubbles and placed in a 37° C. Plates were mixed for 10 s before each reading. The plates were read from the bottom using 360/20 nm excitation and 460/25 nm emission filters. Prior to the assay, the optimum substrate concentration and total protein in cell extract that can used to get best results were determined in the same manner described above, using different substrate concentrations and protein concentrations in the cell extract.

[6] = test system: CLN2 knockdown mouse astrocytes; assay: Peroxide assay in CLN2 knockdown mouse astrocytes; type: cell-based; settings: astrocytes transfected with CLN2 siRNA 36 hrs, gemfibrozil (25 μM) 6 hrs
Protocol: Mouse astrocytes were transfected with CLN2 siRNA (1.0 μg) for 36 hrs and treated with gemfibrozil (25 μM) for 6 hrs. Cells were then harvested and subjected to peroxide assay.

[7] = test system: primary human neurons; assay: LysoTracker labeling of lysosomes in primary human neurons; type: cell-based; settings: 25 μM gemfibrozil and 10 μM fenofibrate, 24 hours
From the text: DAPI was used to visualize nuclei. Results represent 3 independent experiments.

[8] = test system: TPP1; assay: Western blot for TPP1 in mouse primary neurons; type: cell-based; settings: neurons from cortex, hippocampus, striatum; 25 μM gemfibrozil, 24 hrs
Protocol: Fetal (E18-E16) mouse neurons were prepared as previously described (23) with modifications. Whole brains were removed and cortical, hippocampal, striatal and cerebellar fractions were dissected in serum free Neurobasal media. The cells were washed by centrifugation three times at 1200 rpm for 10 min, the pellet dissociated and the cells plated at 10% confluence in 8-well chamber slides pre-treated for >2 hr with Poly-D-Lysine (Sigma, St. Louis, Mo.). After 4 min, the non-adherent cell suspension was aspirated and […] complete Neurobasal media (Invitrogen) supplemented with 2% B27 was added to each well. The cells were incubated for 4 days prior to experimentation. […] The cells were stimulated with gemfibrozil in Neurobasal media supplemented with 2% B27 minus antioxidants (Invitrogen) for 24 hr prior to methanol fixation and immunostaining.
Western blotting was conducted as described earlier (27,28) with modifications. Briefly, cells were scraped in double-distilled H20 and sodium dodecyl sulfate (SDS), electrophoresed on NuPAGE® Novex® 4-12% Bis-Tris gels (Invitrogen) and proteins transferred onto a nitrocellulose membrane (Bio-Rad) using the Thermo-Pierce Fast Semi-Dry Blotter. […]
Protein blots were analyzed using ImageJ (NIH, Bethesda, Md.) and bands were normalized to their respective β-actin loading controls. […]

[9] = biological target: T1, PPARα/RXRα heterodimer (Mus musculus, UniProt P23204+P28700); assay: Co-immunoprecipitation of PPARα and RXRα from nuclear extract of mouse astrocytes; type: cell-based; settings: gemfibrozil (10 μM) and RA (0.5 μM) alone and in combination, 6 hrs
T1 construct: endogenous in cells; host or cells: mouse primary astrocytes (nuclear extract)
T1 sequence (P23204 1-468): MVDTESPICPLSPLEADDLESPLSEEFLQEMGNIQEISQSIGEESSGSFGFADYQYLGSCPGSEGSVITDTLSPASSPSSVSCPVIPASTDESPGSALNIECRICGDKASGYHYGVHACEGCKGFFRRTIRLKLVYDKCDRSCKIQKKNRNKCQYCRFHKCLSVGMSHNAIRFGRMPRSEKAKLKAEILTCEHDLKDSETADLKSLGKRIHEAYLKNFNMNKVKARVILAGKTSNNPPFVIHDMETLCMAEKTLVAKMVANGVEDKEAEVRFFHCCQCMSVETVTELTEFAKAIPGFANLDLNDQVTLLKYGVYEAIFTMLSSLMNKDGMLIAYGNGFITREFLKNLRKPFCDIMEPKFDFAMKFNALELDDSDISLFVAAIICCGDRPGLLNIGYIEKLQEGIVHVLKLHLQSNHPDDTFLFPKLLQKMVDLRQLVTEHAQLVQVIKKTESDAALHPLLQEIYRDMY
T1 sequence (P28700 1-467): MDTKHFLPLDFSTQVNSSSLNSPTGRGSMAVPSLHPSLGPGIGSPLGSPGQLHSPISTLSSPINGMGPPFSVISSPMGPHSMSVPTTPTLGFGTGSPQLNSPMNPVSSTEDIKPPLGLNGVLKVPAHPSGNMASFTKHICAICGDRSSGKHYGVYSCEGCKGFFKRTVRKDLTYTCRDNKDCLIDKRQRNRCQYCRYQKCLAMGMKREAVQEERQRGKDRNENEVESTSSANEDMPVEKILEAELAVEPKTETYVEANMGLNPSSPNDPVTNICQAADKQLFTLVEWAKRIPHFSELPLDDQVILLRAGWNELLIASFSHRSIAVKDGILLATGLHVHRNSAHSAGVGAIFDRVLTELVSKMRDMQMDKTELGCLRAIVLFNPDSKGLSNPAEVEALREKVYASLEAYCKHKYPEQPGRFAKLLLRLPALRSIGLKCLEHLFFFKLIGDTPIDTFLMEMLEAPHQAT
Protocol: After treatment, cells were washed with PBS, scraped into 1.5 mL tubes and centrifuged in 4° C. for 5 min at 500 rpm. The supernatant was aspirated and the pellet was resuspended in a membrane lysis buffer comprised of (4-(2-hydroxyethyl)-1-piperazineethanesulfonic acid) (HEPES, pH 8.0), MgCl2, KCl, dithiothreitol (DTT) and protease/phosphatase inhibitors, vortexed and centrifuged in 4° C. at 15,000 rpm for 3 minutes. Again, the supernatant was aspirated and the pellet was resuspended in a high salt, nuclear envelope lysis buffer comprised of HEPES (pH 8.0), MgCl2, glycerol, NaCl, ethylenediaminetetraacetic acid (EDTA), DTT and protease/phosphatase inhibitors, rotated vigorously in 4° C. for 30 min and centrifuged in 4° C. at 15,000 rpm for 15 minutes. The resultant nuclear pellet was resuspended in IP buffer and a fraction was kept separately as lysate. The remaining nuclear extract was then precleared with 25 ul of protein A-agarose (50%, v/v). The supernatants were immunoprecipitated with 5 ug of anti-RXRα or anti-PPARα or normal IgG (Santa Cruz Biotechnology, Inc.) overnight at 4 C, followed by incubation with protein A-agarose for 4 hrs at 4° C. Protein A-agarose-antigen-antibody complexes were collected by centrifugation at 12,000 rpm for 60 s at 4° C. […]

## Cc1ccc(C)c(OCCCC(C)(C)C(=O)O)c1 [gemfibrozil]
[1]
  level of TPP1 protein (immunofluorescence): considerable increase
[2]
  motor activity parameters: delays the loss of motor activity
[3]
  TPP1 (immunofluorescence): significant increase
[4]
  life span (percentage survival, Kaplan-Meier): prolongs the life span
[5]
  TPP1 enzymatic activity: drastically increased
[6]
  peroxide production: reduces peroxide production
[7]
  lysosomal proliferation (LysoTracker): upregulation
[8]
  increase in TPP1 protein (Western blot, densitometric quantification): 2-3 fold
[9]
  PPARα in immunoblot after immunoprecipitation with RXR Ab: increased abundance of PPARα
  RXR in immunoblot after immunoprecipitation with PPARα Ab, treated vs control: increased presence of RXR

Reference: US11351142B2, “Composition and method for treating neuronal ceroid lipofuscinosis” (Rush University Medical Center, priority 2012, dated 2022)
